Assay results from patent US20080206194A1, “Method for the treatment of breast cancer” (priority 2007, published 2008).
Entries after “also recorded” stand apart in the source; their conditions may differ.

Key:
ERα = ERα detection by immunochemical staining of DMBA/progestin-induced mammary carcinomas; type: in vivo; conditions: wild-type FVB mice, medroxyprogesterone/DMBA-induced carcinogenesis, 40 mg/kg subcutaneously, weekly, for 12 weeks, rabbit polyclonal antibody
Protocol: FIG. 1 illustrates ER detection by immunochemical staining with a rabbit polyclonal antibody of dimethylbenz(α)anthracene (DMBA)/progestin-induced mammary carcinomas of wild-type FVB mice, transgenic MMTV-Pax8PPARγ FVB mice and GW9662-treated mice, with 40 mg/kg, subcutaneously, weekly, for 12 weeks.
Mammary carcinogenesis was induced in female wild-type FVB/N or MMTV-Pax8PPARγ transgenic mice purchased from Charles River Laboratories (Wilmington, Mass.) by subcutaneous injection of 600 mg/kg medroxyprogesterone acetate suspension (150 mg/ml, Sicor Pharmaceuticals Inc., Irvine, Calif.), followed one week later by four weekly oral doses of 1 mg dimethylbenz(a)anthracene (DMBA) dissolved in cottonseed oil (10 mg/ml). Following the last dose of DMBA, mice were injected subcutaneously once a week with 40 mg/kg GW9662 dissolved in cottonseed oil (10 mg/ml). […]
Mammary carcinomas from transgenic MMTV-Pax8PPARγ FVB mice stained intensely for ERα, particularly in the basal layer of cells, as compared to low ERα staining in ductal epithelium from wild-type FVB mice (see FIG. 1). […] ERα was detected by immunochemical staining with a rabbit polyclonal antibody (Santa Cruz Biotechnology, sc-542) diluted 1:1000.

mammary tumors = assay: Mammary tumor formation after carcinogenesis in Pax8PPARγ transgenic mice; type: in vivo; conditions: MMTV-Pax8PPARγ transgenic mice, ER(+) carcinomas; 200 mg/kg subcutaneously once a week for three months after carcinogen administration
Protocol: FIG. 2 is a bar graph showing the total number of mammary tumors appearing in transgenic MMTV-Pax8PPARγ FVB mice treated with either vehicle or ERα antagonist fulvestrant, 200 mg/kg subcutaneously once per week for three months after carcinogen administration.
Mammary carcinogenesis (see, e.g., Yin et al., Characterization of medroxyprogesterone and DMBA-induced multilineage mammary tumors by gene expression. Mol. Carcinogenesis 42:pp. 42-50, (2005)) was induced in Pax8PPARγ transgenic mice, which mammary carcinomas are ER(+) and were treated once a week for three months with the ER antagonist fulvestrant at a dose of 200 mg/kg administered subcutaneously in an oil emulsion. […] Each experimental group consisted of 6 mice. FIG. 2 indicates the total number of mammary tumors appearing three months after carcinogen administration.

| Compound | ERα expression (immunochemical staining) in mammary carcinomas (ERα) | tumor formation (total number of mammary tumors) (mammary tumors) |
| --- | --- | --- |
| O=C(Nc1ccccc1)c1cc([N+](=O)[O-])ccc1Cl [GW9662, 2-Chloro-5-nitrobenzanilide] | substantial ERα staining; also recorded: pattern of ERα expression similar to MMTV-Pax8PPARγ mice | – |
| C[C@]12CC[C@@H]3c4ccc(O)cc4C[C@@H](CCCCCCCCC[S+]([O-])CCCC(F)(F)C(F)(F)F)[C@H]3[C@@H]1CC[C@@H]2O (some centres unmarked) [fulvestrant] | – | completely inhibited tumor formation |
